Experimental data: patent publication US11702409B2, “Pyrazolyl derivatives useful as anti-cancer agents” (NOVARTIS AG, priority 2019, dated 2023)

target: KRasG12C (M1-K169, biotinylated on the N-terminus) (Homo sapiens (Human), UniProt P01116, G12C); assay: Covalent competition assay (scintillation proximity assay, competition with radiolabeled covalent probe Compound B); assay type: binding; conditions: in vitro KRASG12C activity; 10 nM KRasG12C:GDP, 25 nM radio-ligand and 475 nM unlabelled ligand, incubated 2 hours; read-out: Covalent Competition Assay IC50
Method in brief: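 Biotinylated KRasG12C (M1-K169):GDP incubated 2 h with agitation with serially diluted compounds premixed with a fixed concentration of radiolabeled covalent probe; scintillation proximity read-out of competition for covalent modification. Buffer 20 mM Tris-HCl pH 7.5, 150 mM NaCl, 0.1 mM MgCl2, 0.01% Tween-20. IC50 from 4-parameter fit.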

Row | IC50 [nM] | Structure (SMILES)
1 | 24500 | C=CC(=O)N1CC2(CC(n3nc(-c4ccc(C(=O)NCCOC)nc4)c(-c4c(Cl)c(C)cc5[nH]ncc45)c3C)C2)C1 (single isomer, unassigned) [Example 64b]
2 | 46 | C=CC(=O)N1CC2(CC(n3nc(-c4ccc(C(=O)NCCN(C)C)cc4)c(-c4c(Cl)c(C)cc5[nH]ncc45)c3C)C2)C1 (single isomer, unassigned) [Example 65a]
3 | 17400 | C=CC(=O)N1CC2(CC(n3nc(-c4ccc(C(=O)NCCN(C)C)cc4)c(-c4c(Cl)c(C)cc5[nH]ncc45)c3C)C2)C1 (single isomer, unassigned) [Example 65b]
4 | 240 | C=CC(=O)N1CC2(CC(n3nc(-c4ccc(C(=O)N(C)CCOC)cc4)c(-c4c(Cl)c(C)cc5[nH]ncc45)c3C)C2)C1 (single isomer, unassigned) [Example 66a, 4-(1-(2-acryloyl-2-azaspiro[3.3]heptan-6-yl)-4-(5-chloro-6-methyl-1H-indazol-4-yl)-5-methyl-1H-pyrazol-3-yl)-N-(2-methoxyethyl)-N-methylbenzamide]
5 | 4300 | C=CC(=O)N1CC2(CC(n3nc(-c4ccc(C(=O)N(C)CCOC)cc4)c(-c4c(Cl)c(C)cc5[nH]ncc45)c3C)C2)C1 (single isomer, unassigned) [Example 66b, 4-(1-(2-acryloyl-2-azaspiro[3.3]heptan-6-yl)-4-(5-chloro-6-methyl-1H-indazol-4-yl)-5-methyl-1H-pyrazol-3-yl)-N-(2-methoxyethyl)-N-methylbenzamide]
6 | 202 | C=CC(=O)N1CC2(CC(n3nc(-c4ccc(C(=O)N(C)CC(C)(C)O)cc4)c(-c4c(Cl)c(C)cc5[nH]ncc45)c3C)C2)C1 (single isomer, unassigned) [Example 67a]
7 | 12100 | C=CC(=O)N1CC2(CC(n3nc(-c4ccc(C(=O)N(C)CC(C)(C)O)cc4)c(-c4c(Cl)c(C)cc5[nH]ncc45)c3C)C2)C1 (single isomer, unassigned) [Example 67b]
8 | 59 | C=CC(=O)N1CC2(CC(n3nc(-c4ccc(C(=O)O)cc4)c(-c4c(Cl)c(C)cc5[nH]ncc45)c3C)C2)C1 (single isomer, unassigned) [Example 68a]
9 | 1900 | C=CC(=O)N1CC2(CC(n3nc(-c4ccc(C(=O)O)cc4)c(-c4c(Cl)c(C)cc5[nH]ncc45)c3C)C2)C1 (single isomer, unassigned) [Example 68b]
10 | 30 | C=CC(=O)N1CC2(CC(n3nc(-c4ccccc4)c(-c4c(Cl)c(C)cc5[nH]nc(N)c45)c3C)C2)C1 (single isomer, unassigned) [Example 70a, 1-{6-[(4M)-4-(3-Amino-5-chloro-6-methyl-1H-indazol-4-yl)-5-methyl-3-phenyl-1H-pyrazol-1-yl]-2-azaspiro[3.3]heptan-2-yl}prop-2-en-1-one]
11 | 2100 | C=CC(=O)N1CC2(CC(n3nc(-c4ccccc4)c(-c4c(Cl)c(C)cc5[nH]nc(N)c45)c3C)C2)C1 (single isomer, unassigned) [Example 70b, 1-(6-(4-(3-amino-5-chloro-6-methyl-1H-indazol-4-yl)-5-methyl-3-phenyl-1H-pyrazol-1-yl)-2-azaspiro[3.3]heptan-2-yl)prop-2-en-1-one]
12 | 101 | C=CC(=O)N1CC2(CC(n3nc(-c4ccc5nnccc5c4)c(-c4c(Cl)c(C)cc5[nH]ncc45)c3C)C2)C1 (single isomer, unassigned) [Example 71a, 1-(6-(4-(5-chloro-6-methyl-1H-indazol-4-yl)-3-(cinnolin-6-yl)-5-methyl-1H-pyrazol-1-yl)-2-azaspiro[3.3]heptan-2-yl)prop-2-en-1-one]
13 | > 5000 | C=CC(=O)N1CC2(CC(n3nc(-c4ccc5nnccc5c4)c(-c4c(Cl)c(C)cc5[nH]ncc45)c3C)C2)C1 (single isomer, unassigned) [Example 71b, 1-(6-(4-(5-chloro-6-methyl-1H-indazol-4-yl)-3-(cinnolin-6-yl)-5-methyl-1H-pyrazol-1-yl)-2-azaspiro[3.3]heptan-2-yl)prop-2-en-1-one]
14 | 306 | C=CC(=O)N1CC2(CC(n3nc(-c4ccc5c(c4)CS(=O)(=O)C5)c(-c4c(Cl)c(C)cc5[nH]ncc45)c3C)C2)C1 (single isomer, unassigned) [Example 72a]
15 | 24000 | C=CC(=O)N1CC2(CC(n3nc(-c4ccc5c(c4)CS(=O)(=O)C5)c(-c4c(Cl)c(C)cc5[nH]ncc45)c3C)C2)C1 (single isomer, unassigned) [Example 72b]
16 | 5310 | C=CC(=O)N1CC2(CC(n3nc(C4=CN5CC(C)(C)N=C5C(F)=C4)c(-c4c(Cl)c(C)cc5[nH]ncc45)c3C)C2)C1 (single isomer, unassigned) [Example 73a]
17 | > 50000 | C=CC(=O)N1CC2(CC(n3nc(C4=CN5CC(C)(C)N=C5C(F)=C4)c(-c4c(Cl)c(C)cc5[nH]ncc45)c3C)C2)C1 (single isomer, unassigned) [Example 73b]

Row | IC50 [nM] | Structure (SMILES)
18 | 1550 | C=CC(=O)N1CC2(CC(n3nc(-c4c(C)cncc4C)c(-c4c(Cl)c(C)cc5[nH]ncc45)c3C)C2)C1 (single isomer, unassigned) [Example 74a]
19 | > 50000 | C=CC(=O)N1CC2(CC(n3nc(-c4c(C)cncc4C)c(-c4c(Cl)c(C)cc5[nH]ncc45)c3C)C2)C1 (single isomer, unassigned) [Example 74b]
20 | 251 | C=CC(=O)N1CC2(CC(n3nc(-c4ccc5c(c4)CN(C)C5)c(-c4c(Cl)c(C)cc5[nH]ncc45)c3C)C2)C1 (single isomer, unassigned) [Example 75a]
21 | > 50000 | C=CC(=O)N1CC2(CC(n3nc(-c4ccc5c(c4)CN(C)C5)c(-c4c(Cl)c(C)cc5[nH]ncc45)c3C)C2)C1 (single isomer, unassigned) [Example 75b]
22 | 1300 | C=CC(=O)N1CC2(CC(n3nc(-c4ccc5nn(CCN6CC[C@H](F)C6)cc5c4)c(-c4c(Cl)c(C)cc5[nH]ncc45)c3C)C2)C1 (single isomer, unassigned) [Example 80a]
23 | 8 | C=CC(=O)N1CC2(CC(n3nc(-c4ccc5nn(CCN6CC[C@H](F)C6)cc5c4)c(-c4c(Cl)c(C)cc5[nH]ncc45)c3C)C2)C1 (single isomer, unassigned) [Example 80b]
24 | 12 | C=CC(=O)N1CC2(CC(n3nc(-c4ccc5nn(CCN6CC(OC)C6)cc5c4)c(-c4c(Cl)c(C)cc5[nH]ncc45)c3C)C2)C1 (single isomer, unassigned) [Example 82a]
25 | 712 | C=CC(=O)N1CC2(CC(n3nc(-c4ccc5nn(CCN6CC(OC)C6)cc5c4)c(-c4c(Cl)c(C)cc5[nH]ncc45)c3C)C2)C1 (single isomer, unassigned) [Example 82b]
26 | 18 | C=CC(=O)N1CC2(CC(n3nc(-c4ccc5c(cnn5CCO)c4)c(-c4c(Cl)c(C)cc5[nH]ncc45)c3C)C2)C1 (single isomer, unassigned) [Example 83a, 1-(6-(4-(5-chloro-6-methyl-1H-indazol-4-yl)-3-(1-(2-hydroxyethyl)-1H-indazol-5-yl)-5-methyl-1H-pyrazol-1-yl)-2-azaspiro[3.3]heptan-2-yl)prop-2-en-1-one]
27 | 4000 | C=CC(=O)N1CC2(CC(n3nc(-c4ccc5c(cnn5CCO)c4)c(-c4c(Cl)c(C)cc5[nH]ncc45)c3C)C2)C1 (single isomer, unassigned) [Example 83b, 1-(6-(4-(5-chloro-6-methyl-1H-indazol-4-yl)-3-(1-(2-hydroxyethyl)-1H-indazol-5-yl)-5-methyl-1H-pyrazol-1-yl)-2-azaspiro[3.3]heptan-2-yl)prop-2-en-1-one]
28 | 536 | C=CC(=O)N1CC2(CC(n3nc(-c4cccnc4C)c(-c4c(Cl)c(C)cc5[nH]ncc45)c3C(F)F)C2)C1 (single isomer, unassigned) [Example 84a, 1-(6-(4-(5-Chloro-6-methyl-1H-indazol-4-yl)-5-(difluoromethyl)-3-(2-methylpyridin-3-yl)-1H-pyrazol-1-yl)-2-azaspiro[3.3]heptan-2-yl)prop-2-en-1-one]
29 | > 50000 | C=CC(=O)N1CC2(CC(n3nc(-c4cccnc4C)c(-c4c(Cl)c(C)cc5[nH]ncc45)c3C(F)F)C2)C1 (single isomer, unassigned) [Example 84b, 1-(6-(4-(5-Chloro-6-methyl-1H-indazol-4-yl)-5-(difluoromethyl)-3-(2-methylpyridin-3-yl)-1H-pyrazol-1-yl)-2-azaspiro[3.3]heptan-2-yl)prop-2-en-1-one]
30 | 335 | C=CC(=O)N1CC2(CC(n3nc(-c4cccnc4)c(-c4c(Cl)c(Cl)cc5[nH]ncc45)c3C(F)F)C2)C1 (single isomer, unassigned) [Example 85a]
31 | 21600 | C=CC(=O)N1CC2(CC(n3nc(-c4cccnc4)c(-c4c(Cl)c(Cl)cc5[nH]ncc45)c3C(F)F)C2)C1 (single isomer, unassigned) [Example 85b]
32 | 1300 | C=CC(=O)N1CC2(CC(n3nc(-c4cncnc4)c(-c4c(Cl)c(Cl)cc5[nH]ncc45)c3C(F)F)C2)C1 (single isomer, unassigned) [Example 86a]
33 | > 50000 | C=CC(=O)N1CC2(CC(n3nc(-c4cncnc4)c(-c4c(Cl)c(Cl)cc5[nH]ncc45)c3C(F)F)C2)C1 (single isomer, unassigned) [Example 86b]

Row | Structure (SMILES) | IC50 [nM]
34 | C=CC(=O)N1CC2(CC(n3nc(-c4ccc5nn(CCOC)cc5c4)c(-c4c(Cl)c(C)cc5[nH]nc(N)c45)c3C)C2)C1 (single isomer, unassigned) [Example 69a, 1-(6-{(4M)-4-(3-Amino-5-chloro-6-methyl-1H-indazol-4-yl)-3-[2-(2-methoxyethyl)-2H-indazol-5-yl]-5-methyl-1H-pyrazol-1-yl}-2-azaspiro[3.3]heptan-2-yl)prop-2-en-1-one] | 9
35 | C=CC(=O)N1CC2(CC(n3nc(-c4ccc5nn(CCOC)cc5c4)c(-c4c(Cl)c(C)cc5[nH]nc(N)c45)c3C)C2)C1 (single isomer, unassigned) [Example 69b, 1-(6-(4-(3-amino-5-chloro-6-methyl-1H-indazol-4-yl)-3-(2-(2-methoxyethyl)-2H-indazol-5-yl)-5-methyl-1H-pyrazol-1-yl)-2-azaspiro[3.3]heptan-2-yl)prop-2-en-1-one] | 840
